Laboratory results published in PMC6556873, “Rapid Covalent-Probe Discovery by Electrophile-Fragment Screening” (Journal of the American Chemical Society, 2019).
Like-named read-outs stand apart in the source and are kept apart here.

Experiments:
NUDT7 [1] = molecular target: T1, NUDT7 (Homo sapiens, UniProt P0C024); design: Intact protein LC/MS covalent labelling, fragments in pools of five, 200 uM each, 4 °C; conditions: 24 h, 4 °C, pool of five; 200 µM; covalent
T1 construct: residues 14-235, E. coli, pNIC28-Bsa4, N-terminal His6 tag removed by TEV, construct 26672 Da
T1 sequence (P0C024 14-235): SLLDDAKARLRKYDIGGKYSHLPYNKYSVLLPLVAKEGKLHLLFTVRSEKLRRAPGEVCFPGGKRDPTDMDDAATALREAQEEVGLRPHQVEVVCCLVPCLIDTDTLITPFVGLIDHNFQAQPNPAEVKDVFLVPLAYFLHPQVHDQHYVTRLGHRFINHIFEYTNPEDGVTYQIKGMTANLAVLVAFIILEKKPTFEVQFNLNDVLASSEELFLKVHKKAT

BSA = molecular target: T2, BSA (Bos taurus, UniProt P02769); design: Intact protein LC/MS covalent labelling, fragments in pools of five, 200 uM each, 4 °C; conditions: 24 h, 4 °C, pool of five; 200 µM; covalent
T2 construct: gene ALB
T2 sequence (P02769 whole entry, the tested form may be a part): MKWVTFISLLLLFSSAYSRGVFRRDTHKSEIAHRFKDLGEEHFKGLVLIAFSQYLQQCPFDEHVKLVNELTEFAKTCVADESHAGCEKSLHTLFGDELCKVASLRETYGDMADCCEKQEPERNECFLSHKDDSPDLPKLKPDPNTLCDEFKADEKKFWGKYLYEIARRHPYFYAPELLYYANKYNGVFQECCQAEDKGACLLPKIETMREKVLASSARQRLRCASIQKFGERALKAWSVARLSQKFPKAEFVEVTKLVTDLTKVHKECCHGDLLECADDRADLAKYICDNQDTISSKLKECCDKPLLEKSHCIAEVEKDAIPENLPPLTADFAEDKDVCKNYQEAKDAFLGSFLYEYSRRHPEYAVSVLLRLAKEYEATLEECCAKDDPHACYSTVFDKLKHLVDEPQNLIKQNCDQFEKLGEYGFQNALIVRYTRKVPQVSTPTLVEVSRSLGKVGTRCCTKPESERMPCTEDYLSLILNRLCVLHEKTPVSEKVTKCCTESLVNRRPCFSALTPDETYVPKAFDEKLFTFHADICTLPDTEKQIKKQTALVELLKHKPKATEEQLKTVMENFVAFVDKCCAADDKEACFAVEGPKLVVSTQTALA

PCAF = molecular target: T3, PCAF (Homo sapiens, UniProt Q92831); design: Intact protein LC/MS covalent labelling, fragments in pools of five, 200 uM each, 4 °C; conditions: 24 h, 4 °C, pool of five; 200 µM; covalent
T3 construct: gene KAT2B
T3 sequence (Q92831 whole entry, the tested form may be a part): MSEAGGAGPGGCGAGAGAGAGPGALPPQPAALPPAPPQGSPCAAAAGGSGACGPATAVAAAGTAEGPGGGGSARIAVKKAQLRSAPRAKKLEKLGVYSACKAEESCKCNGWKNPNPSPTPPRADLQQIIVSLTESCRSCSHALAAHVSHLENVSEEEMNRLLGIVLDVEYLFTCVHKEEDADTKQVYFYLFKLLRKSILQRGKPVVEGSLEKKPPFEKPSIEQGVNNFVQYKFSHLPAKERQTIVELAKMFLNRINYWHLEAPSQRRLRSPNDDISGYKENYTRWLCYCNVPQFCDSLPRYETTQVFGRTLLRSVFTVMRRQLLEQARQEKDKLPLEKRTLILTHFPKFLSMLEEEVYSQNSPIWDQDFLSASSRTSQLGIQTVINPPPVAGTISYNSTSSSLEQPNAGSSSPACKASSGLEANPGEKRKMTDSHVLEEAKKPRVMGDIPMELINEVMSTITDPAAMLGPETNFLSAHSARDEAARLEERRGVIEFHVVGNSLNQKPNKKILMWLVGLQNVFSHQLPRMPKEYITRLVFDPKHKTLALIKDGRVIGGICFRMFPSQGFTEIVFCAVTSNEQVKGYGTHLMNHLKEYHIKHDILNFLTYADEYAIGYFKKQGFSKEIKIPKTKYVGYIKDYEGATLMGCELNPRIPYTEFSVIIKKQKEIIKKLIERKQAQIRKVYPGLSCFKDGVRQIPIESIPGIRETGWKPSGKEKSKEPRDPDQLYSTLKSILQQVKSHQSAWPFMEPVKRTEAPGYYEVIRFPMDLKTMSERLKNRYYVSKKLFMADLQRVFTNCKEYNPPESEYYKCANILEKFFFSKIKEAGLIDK

OTUB2 (OTUB2A) = molecular target: T4, OTUB2 (OTUB2A) (Homo sapiens, UniProt Q96DC9); design: Intact protein LC/MS covalent labelling, fragments in pools of five, 200 uM each, 4 °C; conditions: 24 h, 4 °C, pool of five; 200 µM; covalent
T4 construct: full length residues 1-234, E. coli BL21(DE3)-R3, His tag removed by TEV, construct 27312 Da
T4 sequence (Q96DC9 1-234): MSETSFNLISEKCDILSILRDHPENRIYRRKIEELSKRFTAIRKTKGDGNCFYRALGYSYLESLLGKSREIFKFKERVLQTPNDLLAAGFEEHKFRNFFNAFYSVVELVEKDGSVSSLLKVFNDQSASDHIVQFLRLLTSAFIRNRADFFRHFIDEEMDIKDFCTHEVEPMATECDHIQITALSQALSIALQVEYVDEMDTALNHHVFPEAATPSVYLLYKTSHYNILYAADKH

in vitro [2] = assay: in vitro; design: species or system CCD841, HEK293; conditions: human, hb2 cells, read-out: HB-2 Cells Viability (%)
NUDT7 [3] = molecular target: T1, NUDT7; assay: intact protein LC/MS labeling; assay type: binding; conditions: covalent; 24 h, 4 °C, 2 μM protein, pools of five, pH 7.5
in vitro [4] = assay: in vitro; design: species or system HB2, HEK293; conditions: human, ccd841 cells
in vitro [5] = assay: in vitro; design: species or system HB2, CCD841; conditions: human, hek293 cells
NNMT (hNNMT) = molecular target: T5, NNMT (hNNMT) (Homo sapiens, UniProt P40261); design: Intact protein LC/MS covalent labelling, fragments in pools of five, 200 uM each, 4 °C; conditions: 24 h, 4 °C, pool of five; 200 µM; covalent
T5 construct: wild type, N-terminal His6 tag kept (no cleavage described), E. coli, construct 31248 Da
T5 sequence (P40261 1-264): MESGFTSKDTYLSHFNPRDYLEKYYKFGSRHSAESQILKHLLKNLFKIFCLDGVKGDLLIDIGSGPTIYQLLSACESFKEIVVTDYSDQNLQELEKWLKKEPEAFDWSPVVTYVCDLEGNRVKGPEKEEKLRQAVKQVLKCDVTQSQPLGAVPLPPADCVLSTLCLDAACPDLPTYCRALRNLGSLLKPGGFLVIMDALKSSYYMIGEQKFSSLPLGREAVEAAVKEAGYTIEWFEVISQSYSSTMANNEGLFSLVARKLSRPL

SMILES	NUDT7 (NUDT7 [1])	BSA (BSA)	PCAF (PCAF)	OTUB2 (OTUB2 (OTUB2A))	viability at 48 h, 10 µM (in vitro [2])	% labeling at 200 μM (NUDT7 [3])	viability at 48 h, 10 µM (in vitro [4])	viability at 48 h, 10 µM (in vitro [5])	NNMT (NNMT (hNNMT))
O=C(CCl)N1CCCC1c1ccc2c(c1)OCCCO2 (centres unmarked) [PCM-0102512]	0.88	0	0	0	8.3%	88%	19.7%	3.8%	–
Cc1cccc(CNC(=O)CCl)c1 [PCM-0102821]	0	0	0	0.86	99.7%	–	80.7%	87.5%	0.29
O=C(CCl)N1CCCC1c1ccc2c(c1)OCCO2 (centres unmarked) [PCM-0102298]	1	0	0	0	5.3%	100%	21.6%	4.5%	–
Cc1cccc(C(=O)NNC(=O)CCl)c1 [PCM-0102737]	0	0	0	0.54	82.1%	–	80%	83.7%	0
O=C(CCl)Nc1cccc(N2CCCC2=O)c1 [PCM-0102179]	0.12	0	0	0.47	20.8%	–	52.4%	1.8%	0.23
Cc1ccc(NC(=O)NC(=O)CCl)cc1 [PCM-0102623]	0.11	0	0	0	69.1%	–	82.5%	80.6%	0.71
N#CC1(NC(=O)CCl)CCC1 [PCM-0102854]	0.09	0	0	0	90%	–	81.1%	93.1%	0
O=C(CCl)NCc1ccccc1F [PCM-0102149]	0	0	0	0.62	86.4%	–	63.7%	71.3%	0
O=C(CCl)NC(=O)c1ccccc1 [PCM-0102414]	0	0	0	0	102%	–	101%	91.5%	0
CN(Cc1ccc(F)cc1)C(=O)CCl [PCM-0102939]	0	0	0	0.1	34.8%	–	69.2%	42.7%	0
O=C(CCl)N1CCN(S(=O)(=O)c2ccccc2F)CC1 [PCM-0102281]	0.14	0	0	0	7.1%	–	62.6%	9.5%	0
C=CC(=O)N1CCCn2c(cc3ccccc32)C1 [PCM-0102730]	0	0	0	0.18	104%	–	92.2%	85%	0
COC(=O)c1cc(NC(=O)CCl)cn1C [PCM-0102545]	0	0	0	0.33	54.5%	–	65.4%	12.7%	0.16
Cc1cc(CNC(=O)CCl)cc(C)c1O [PCM-0102431]	0	0	0	0.64	85.7%	–	96.3%	84.6%	0
C=CC(=O)N1CC(S(=O)(=O)CC)C1 [PCM-0102442]	0	0	0	0	94.8%	–	100%	77.7%	0.14
COc1ccc(NC(=O)CCl)cc1 [PCM-0102156]	0	0	0	0.52	24.7%	–	42.7%	2.4%	0.25
COC(=O)C1CCN(C(=O)CCl)CC1 [PCM-0102978]	0	0	0	0	100%	–	110%	99.4%	0
O=C(CCl)N(c1ccccc1)C1C=CS(=O)(=O)C1 (centres unmarked) [PCM-0102372]	0.28	0	0	0	24.1%	–	31%	11.2%	0.28
C=CC(=O)N1CCC(NC(=O)OC(C)(C)C)CC1 [PCM-0102617]	0	0	0	0	104%	–	105%	94.2%	0.16
